Columns and labels:
Metallo-L1 β-lactamase [1] = molecular target: T1, Metallo-L1 β-lactamase (Stenotrophomonas maltophilia, UniProt B2FTM1); experiment: nitrocefin hydrolysis inhibition assay, absorbance at […] nm, […] enzyme; format: biochemical
Metallo-L1 β-lactamase [2] = molecular target: T1, Metallo-L1 β-lactamase; experiment: nitrocefin hydrolysis inhibition assay, absorbance at […] nm, positive control; format: biochemical

T1 sequence (B2FTM1 22-290): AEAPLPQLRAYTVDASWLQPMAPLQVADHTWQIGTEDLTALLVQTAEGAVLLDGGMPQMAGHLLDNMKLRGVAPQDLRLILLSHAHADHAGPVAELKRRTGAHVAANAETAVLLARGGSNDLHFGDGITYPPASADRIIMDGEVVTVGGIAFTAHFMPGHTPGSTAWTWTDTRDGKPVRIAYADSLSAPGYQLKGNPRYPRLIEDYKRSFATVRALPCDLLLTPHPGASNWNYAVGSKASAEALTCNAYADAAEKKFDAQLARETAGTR

SMILES: Oc1c2ccccc2cc2cnc3ccccc3c12 [Benzo[j]phenanthridin-12-ol]
- IC50 (Metallo-L1 β-lactamase [1]): 23 µM

SMILES: O=C(O)CN(CCN(CC(=O)O)CC(=O)O)CC(=O)O [EDTA]
- IC50 (Metallo-L1 β-lactamase [2]): 2.24 µM
